biological target: T1, HCV polymerase (Hepatitis C virus genotype 1b, UniProt P26663); experiment: biochemical; parameters: species or system HCV BK strain
T1 construct: a region encoding NS5B (J Virol 1991 March, 65(3), 1105-13, 544 amino acids after deletion of 47 amino acids on the C-terminal); 6xHis (C); made in house; host or cells: Escherichia coli
How it was run: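 Recombinant HCV BK-strain NS5B (C-terminal 47 aa deleted, His6-tagged, E. coli), 0.5 μg/ml, run with 5 μg/ml in vitro-transcribed RNA template (polyU/3′X), ATP/GTP/CTP 50 μM, UTP 2 μM plus [3H]UTP, pH 7.5, 25° C, 90 min. TCA-precipitated RNA counted by scintillation; IC50 from activity with vs without compound.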

T1 sequence (P26663 2420-2963): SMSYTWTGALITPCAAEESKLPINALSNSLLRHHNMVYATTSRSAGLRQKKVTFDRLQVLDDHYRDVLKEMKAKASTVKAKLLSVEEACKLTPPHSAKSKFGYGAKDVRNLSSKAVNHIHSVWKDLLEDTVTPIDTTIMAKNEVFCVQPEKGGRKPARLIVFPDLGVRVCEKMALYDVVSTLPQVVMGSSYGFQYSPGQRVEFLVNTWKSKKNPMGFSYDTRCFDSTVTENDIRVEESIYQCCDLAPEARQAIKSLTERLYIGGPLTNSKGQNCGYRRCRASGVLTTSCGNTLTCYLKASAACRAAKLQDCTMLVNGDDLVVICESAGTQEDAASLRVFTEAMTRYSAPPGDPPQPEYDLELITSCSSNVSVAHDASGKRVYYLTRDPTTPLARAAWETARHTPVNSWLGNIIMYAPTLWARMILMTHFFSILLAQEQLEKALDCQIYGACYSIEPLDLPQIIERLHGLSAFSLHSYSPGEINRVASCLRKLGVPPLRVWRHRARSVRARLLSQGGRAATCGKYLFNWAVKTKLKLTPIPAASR

**Q.** Which IC50 does the source give for `COc1ccc2c(c1)OCCn1c-2c(C2CCCCC2)c2ccc(C(=O)NC3(C(=O)Nc4ccc(C(C)(C)C(=O)O)cc4)CCC3)cc21` [Example 2-406, 2-[4-({1-[(12-cyclohexyl-3-methoxy-6,7-dihydro-5-oxa-7a-azadibenzo[a,e]azulene-9-carbonyl)amino]cyclobutanecarbonyl}amino)phenyl]-2-methylpropionic acid] here?
**A.** Its IC50 is less than 100 nM.

**Q.** `COC(=O)Nc1ccc(C[C@H](NC(=O)c2ccc3c(C4CCCCC4)c4n(c3c2)CCOc2cc(OC)ccc2-4)c2nc(C)no2)cc1` [Example 2-407, methyl {4-[(S)-2-[(12-cyclohexyl-3-methoxy-6,7-dihydro-5-oxa-7a-azadibenzo[a,e]azulene-9-carbonyl)amino]-2-(3-methyl-1,2,4-oxadiazol-5-yl)ethyl]phenyl}carbamate] was tested. Which IC50 did it give?
**A.** The IC50 was less than 100 nM.

**Q.** How did the IC50 turn out when `COc1ccc2c(c1)OCCn1c-2c(C2CCCCC2)c2ccc(C(=O)NC(C)(C)c3nc4ccccc4[nH]3)cc21` [Example 2-408, N-[1-(1H-benzimidazol-2-yl)-1-methylethyl]-12-cyclohexyl-3-methoxy-6,7-dihydro-5-oxa-7a-azadibenzo[a,e]azulene-9-carboxamide] was run?
**A.** Its IC50 is less than 100 nM.

**Q.** With `COc1ccc2c(c1)OCCn1c-2c(C2CCCCC2)c2ccc(C(=O)NC3(c4nc5ccc(C(=O)O)cc5[nH]4)CCOCC3)cc21` [Example 2-409, 2-{4-[(12-cyclohexyl-3-methoxy-6,7-dihydro-5-oxa-7a-azadibenzo[a,e]azulene-9-carbonyl)amino]tetrahydropyran-4-yl]-3H-benzimidazole-5-carboxylic acid] as the molecule, how does the IC50 read?
**A.** The IC50 was less than 100 nM.

**Q.** Which IC50 does the source give for `COc1ccc2c(c1)OCCn1c-2c(C2CCCCC2)c2ccc(C(=O)N[C@@H](Cc3ccc(NC(=O)OCc4ccccc4)cc3)c3csc(C)n3)cc21` [Example 2-410, benzyl (4-[(S)-2-[(12-cyclohexyl-3-methoxy-6,7-dihydro-5-oxa-7a-azadibenzo[a,e]azulene-9-carbonyl)amino]-2-(2-methylthiazol-4-yl)ethyl]phenyl}carbamate] here?
**A.** Its IC50 is less than 100 nM.

**Q.** `COc1ccc2c(c1)OCCn1c-2c(C2CCCCC2)c2ccc(C(=O)NC(C)(C)c3nc4cc(/C=C/C(=O)O)ccc4[nH]3)cc21` [Example 2-411, (E)-3-(2-{1-[(12-cyclohexyl-3-methoxy-6,7-dihydro-5-oxa-7a-azadibenzo[a,e]azulene-9-carbonyl)amino]-1-methylethyl}-1H-benzimidazol-5-yl)acrylic acid] was tested. Which IC50 did it give?
**A.** The IC50 was less than 100 nM.

**Q.** With `COc1ccc2c(c1)OCCn1c-2c(C2CCCCC2)c2ccc(C(=O)NC(C)(C)c3nc4cc(CCC(=O)O)ccc4[nH]3)cc21` [Example 2-412, 3-(2-{1-[(12-cyclohexyl-3-methoxy-6,7-dihydro-5-oxa-7a-azadibenzo[a,e]azulene-9-carbonyl)amino]-1-methylethyl}-1H-benzimidazol-5-yl)propionic acid] as the molecule, how does the IC50 read?
**A.** Its IC50 is less than 100 nM.

**Q.** With `COc1ccc2c(c1)OCCn1c-2c(C2CCCCC2)c2ccc(C(=O)NC3(c4nc5cc(CO)c(OC)cc5[nH]4)CCC3)cc21` [Example 2-413, N-[1-(5-hydroxymethyl-6-methoxy-1H-benzimidazol-2-yl)cyclobutyl]-12-cyclohexyl-3-methoxy-6,7-dihydro-5-oxa-7a-azadibenzo[a,e]azulene-9-carboxamide] as the molecule, how does the IC50 read?
**A.** Its IC50 is less than 100 nM.

**Q.** For `COc1ccc2c(c1)OCCn1c-2c(C2CCCCC2)c2ccc(C(=O)N[C@@H](Cc3ccc(N)cc3)c3csc(C)n3)cc21` [Example 2-414, N—[(S)-2-(4-aminophenyl)-1-(2-methylthiazol-4-yl)ethyl]-12-cyclohexyl-3-methoxy-6,7-dihydro-5-oxa-7a-azadibenzo[a,e]azulene-9-carboxamide], which IC50 is on record?
**A.** The IC50 was less than 100 nM.

**Q.** How did the IC50 turn out when `COC(=O)Nc1ccc(C[C@H](NC(=O)c2ccc3c(C4CCCCC4)c4n(c3c2)CCOc2cc(OC)ccc2-4)c2csc(C)n2)cc1` [Example 2-415, methyl (4-[(S)-2-[(12-cyclohexyl-3-methoxy-6,7-dihydro-5-oxa-7a-azadibenzo[a,e]azulene-9-carbonyl)amino]-2-(2-methylthiazol-4-yl)ethyl]phenyl}carbamate] was run?
**A.** The IC50 was less than 100 nM.

**Q.** With `COc1ccc2c(c1)OCCn1c-2c(C2CCCCC2)c2ccc(C(=O)N[C@@H](Cc3ccc(O)cc3)C(=O)NC(C)(C)C(=O)O)cc21` [Example 2-416, 2-[(S)-2-[(12-cyclohexyl-3-methoxy-6,7-dihydro-5-oxa-7a-azadibenzo[a,e]azulene-9-carbonyl)amino]-3-(4-hydroxyphenyl)propionylamino]-2-methylpropionic acid] as the molecule, how does the IC50 read?
**A.** Its IC50 is less than 100 nM.

**Q.** `COC(=O)COc1ccc2[nH]cc(C[C@H](NC(=O)c3ccc4c(C5CCCCC5)c5n(c4c3)CCOc3cc(OC)ccc3-5)c3csc(C)n3)c2c1` [Example 2-417, methyl {3-[(S)-2-[(12-cyclohexyl-3-methoxy-6,7-dihydro-5-oxa-7a-azadibenzo[a,e]azulene-9-carbonyl)amino]-2-(2-methylthiazol-4-yl)ethyl]-1H-indol-5-yloxy}acetate] was tested. Which IC50 did it give?
**A.** The IC50 was less than 100 nM.

**Q.** `COc1ccc2c(c1)OCCn1c-2c(C2CCCCC2)c2ccc(C(=O)NC(C)(C)c3nc4ccc(C(=O)N5CCN(C)CC5)cc4[nH]3)cc21` [Example 2-418, N-(1-methyl-1-[6-(4-methylpiperazine-1-carbonyl)-1H-benzimidazol-2-yl]ethyl}-12-cyclohexyl-3-methoxy-6,7-dihydro-5-oxa-7a-azadibenzo[a,e]azulene-9-carboxamide] was tested. Which IC50 did it give?
**A.** The IC50 was less than 100 nM.

**Q.** `COc1ccc2c(c1)OCCn1c-2c(C2CCCCC2)c2ccc(C(=O)NC(C)(C)c3nc4ccc(C(=O)N5CCOCC5)cc4[nH]3)cc21` [Example 2-419, N-(1-methyl-1-[6-(morpholine-4-carbonyl)-1H-benzimidazol-2-yl]ethyl}-12-cyclohexyl-3-methoxy-6,7-dihydro-5-oxa-7a-azadibenzo[a,e]azulene-9-carboxamide] was tested. Which IC50 did it give?
**A.** Its IC50 is less than 100 nM.

**Q.** How did the IC50 turn out when `COc1ccc2c(c1)OCCn1c-2c(C2CCCCC2)c2ccc(C(=O)NC3(c4nc5ccc(OCc6ccccc6)cc5[nH]4)CCC3)cc21` [Example 2-420, N-[1-(6-benzyloxy-1H-benzimidazol-2-yl)cyclobutyl]-12-cyclohexyl-3-methoxy-6,7-dihydro-5-oxa-7a-azadibenzo[a,e]azulene-9-carboxamide] was run?
**A.** Its IC50 is less than 100 nM.

**Q.** Which IC50 does the source give for `COc1ccc2c(c1)OCCn1c-2c(C2CCCCC2)c2ccc(C(=O)N[C@@H](Cc3c[nH]c4ccc(OCCO)cc34)c3csc(C)n3)cc21` [Example 2-421, N—[(S)-2-[5-(2-hydroxyethoxy)-1H-indol-3-yl]-1-(2-methylthiazol-4-yl)ethyl]-12-cyclohexyl-3-methoxy-6,7-dihydro-5-oxa-7a-azadibenzo[a,e]azulene-9-carboxamide] here?
**A.** The IC50 was less than 100 nM.

**Q.** How did the IC50 turn out when `COc1ccc2c(c1)OCCn1c-2c(C2CCCCC2)c2ccc(C(=O)NC(C)(C)c3ccc(/C=C/C(=O)O)cc3)cc21` [Example 2-422, (E)-3-(4-{1-[(12-cyclohexyl-3-methoxy-6,7-dihydro-5-oxa-7a-azadibenzo[a,e]azulene-9-carbonyl)amino]-1-methylethyl}phenyl)acrylic acid] was run?
**A.** Its IC50 is less than 100 nM.

**Q.** How did the IC50 turn out when `COc1ccc2c(c1)OCCn1c-2c(C2CCCCC2)c2ccc(C(=O)NC(C)(C)c3ccc(CCC(=O)O)cc3)cc21` [Example 2-423, 3-(4-{1-[(12-cyclohexyl-3-methoxy-6,7-dihydro-5-oxa-7a-azadibenzo[a,e]azulene-9-carbonyl)amino]-1-methylethyl}phenyl)propionic acid] was run?
**A.** The IC50 was less than 100 nM.

**Q.** With `COCCCOc1ccc(C[C@H](NC(=O)c2ccc3c(C4CCCCC4)c4n(c3c2)CCOc2cc(OC)ccc2-4)C(=O)OC)cc1` [Example 2-424, methyl (S)-2-[(12-cyclohexyl-3-methoxy-6,7-dihydro-5-oxa-7a-azadibenzo[a,e]azulene-9-carbonyl)amino]-3-[4-(3-methoxypropoxy)phenyl]propionate] as the molecule, how does the IC50 read?
**A.** The IC50 was less than 100 nM.

**Q.** How did the IC50 turn out when `COc1ccc2c(c1)OCCn1c-2c(C2CCCCC2)c2ccc(C(=O)N[C@@H](Cc3ccc(NC(=O)N(C)C)cc3)C(=O)O)cc21` [Example 2-425, (S)-2-[(12-cyclohexyl-3-methoxy-6,7-dihydro-5-oxa-7a-azadibenzo[a,e]azulene-9-carbonyl)amino]-3-[4-(3,3-dimethylureido)phenyl]propionic acid] was run?
**A.** The IC50 was less than 100 nM.

**Q.** For `CONC(=O)[C@H](Cc1ccc(O)cc1)NC(=O)c1ccc2c(C3CCCCC3)c3n(c2c1)CCOc1cc(OC)ccc1-3` [Example 2-426, N—[(S)-2-(4-hydroxyphenyl)-1-(methoxycarbamoyl)ethyl]-12-cyclohexyl-3-methoxy-6,7-dihydro-5-oxa-7a-azadibenzo[a,e]azulene-9-carboxamide], which IC50 is on record?
**A.** The IC50 was less than 100 nM.

**Q.** For `COc1ccc2c(c1)OCCn1c-2c(C2CCCCC2)c2ccc(C(=O)N[C@@H](Cc3ccc(O)cc3)C(=O)N(C)OC)cc21` [Example 2-427, N—[(S)-2-(4-hydroxyphenyl)-1-(N-methoxy-N-methylcarbamoyl)ethyl]-12-cyclohexyl-3-methoxy-6,7-dihydro-5-oxa-7a-azadibenzo[a,e]azulene-9-carboxamide], which IC50 is on record?
**A.** Its IC50 is less than 100 nM.

**Q.** Which IC50 does the source give for `COc1ccc2c(c1)OCCn1c-2c(C2CCCCC2)c2ccc(C(=O)N[C@@H](Cc3ccc(OCc4ccccc4)cc3)c3noc(=O)[nH]3)cc21` [Example 2-428, N—[(S)-2-(4-benzyloxyphenyl)-1-(5-oxo-4,5-dihydro-1,2,4-oxadiazol-3-yl)ethyl]-12-cyclohexyl-3-methoxy-6,7-dihydro-5-oxa-7a-azadibenzo[a,e]azulene-9-carboxamide] here?
**A.** Its IC50 is less than 100 nM.

**Q.** For `COc1ccc2c(c1)OCCn1c-2c(C2CCCCC2)c2ccc(C(=O)N[C@@H](Cc3ccc(O)cc3)c3noc(=O)[nH]3)cc21` [Example 2-429, N—[(S)-2-(4-hydroxyphenyl)-1-(5-oxo-4,5-dihydro-1,2,4-oxadiazol-3-yl)ethyl]-12-cyclohexyl-3-methoxy-6,7-dihydro-5-oxa-7a-azadibenzo[a,e]azulene-9-carboxamide], which IC50 is on record?
**A.** The IC50 was less than 100 nM.

From patent publication US20070049593A1 (priority 2004, published 2007)
